Here are results for five compounds from US7531669B2, “Methods for treating neural disorders and conditions, and compounds useful therefor” (The Salk Institute for Biological Studies, priority 2003, dated 2009).

The nature of data set [1]: Plasma concentration after a single oral dose in mice. The class given is in vivo, BALB/c mice. Particulars: for Plasma 11-001 concentration: 400 mg/kg single oral dose. The procedure: The pharmacokinetic properties of compound 11-001 (see FIG. 14) after a single oral dose were studied in 10-week old female BALB/c mice. Compound 11-001 was emulsified in 2.5% carboxymethyl cellulose at a concentration of 20 mg/ml and administered by gavage at a dosage of 400 mg/kg body weight (administered volume was 20 ml/kg body weight). The mice were then sacrificed at various intervals after administration (0, 1 hr, 2 hr, 4 hr, and 6 hr). Plasma was obtained from blood (mixed with K3EDTA to prevent coagulation) by centrifugation at 4,300 g for 10 min, extracted twice with ethyl acetate/propanol (9:1, v/v). The extracts were centrifuged at 5,000 g for 10 min to form aqueous/organic layers. The organic layer containing compound 11-001 was centrifuged at 20,000 g for 10 min to sediment particles. The extraction recovery from plasma was approximately 90%. Thirty μl thereof were analyzed by HPLC equipped with a C18 reversed phase column and compound 11-001 was detected at 330 nm. The elution solvent system was 50% acetonitrile, 50% water and 1 g/L trifluoroacetic acid with a flow rate of 1 ml/min.

Data set [2] can be described thus: Brain content after a single oral dose in mice. The class given is in vivo, BALB/c mice. Conditions: for Brain 11-001 content: 400 mg/kg single oral dose. The procedure: To study the distribution of compound 11-001 in brain at various time intervals (0, 1 hr, 2 hr, 4 hr, and 6 hr) after gavage (400 mg/kg), the mice were anesthetized with cloral hydrate and perfused through the heart with phosphate buffered saline (PBS) to remove blood in the brain. The mice were then decapitated, the brains removed, and quickly frozen and stored at −80° C. before further analysis. To measure the level of compound 11-001 in the brain, weighed brain pieces were homogenized by sonication in 3 volumes of PBS. The homogenates were then extracted and measured by HPLC as described above.

Data set [3] relates to HT22 cells. As to the kind of experiment: HT22 cell survival after glutamate in the CREB phosphorylation experiment. The class given is cell-based. Particulars: 1 μM compound; all cells died in its absence. The procedure: CREB phosphorylation in response to oxidative stress was evaluated in the presence of invention compounds. Glutamate was added to HT22 cells in the presence or absence of compound 11-001 (at 1 μM). […] Furthermore, all of the HT22 cells died in the absence of compound 11-001, and over 90% lived in the presence of compound 11-001.

The target of data set [4] is JNK-3 (Homo sapiens, UniProt P53779). The data set can be described thus: Protein kinase panel screen: JNK-3. The class given is biochemical. An excerpt: (§1) A panel of 14 protein kinases was screened against compound 11-001. […] The phosphorylation of the other tested kinases was not altered.
Sequence of JNK-3 (P53779 whole entry, species assumed): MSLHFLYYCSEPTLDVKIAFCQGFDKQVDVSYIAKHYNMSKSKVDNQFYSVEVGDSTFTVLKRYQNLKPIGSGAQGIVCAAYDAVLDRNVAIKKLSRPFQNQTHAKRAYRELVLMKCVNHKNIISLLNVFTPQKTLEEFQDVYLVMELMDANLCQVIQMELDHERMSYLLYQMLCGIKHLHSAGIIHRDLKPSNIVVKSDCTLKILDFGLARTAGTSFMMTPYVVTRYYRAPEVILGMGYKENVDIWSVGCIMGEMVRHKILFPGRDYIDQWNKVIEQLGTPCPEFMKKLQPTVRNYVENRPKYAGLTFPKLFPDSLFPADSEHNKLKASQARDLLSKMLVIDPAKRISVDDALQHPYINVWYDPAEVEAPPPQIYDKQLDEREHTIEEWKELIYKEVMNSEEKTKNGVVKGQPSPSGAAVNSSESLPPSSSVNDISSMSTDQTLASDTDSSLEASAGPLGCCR
Data set [5] concerns the target JNK-1 (Homo sapiens, UniProt P45983). As to the kind of experiment: Protein kinase panel screen: JNK-1. The class given is biochemical.
From the text: as §1

For data set [6], the target named is JNK-2 (Homo sapiens, UniProt P45984). The data set can be described thus: Protein kinase panel screen: JNK-2. Type of data set: biochemical.
Sequence of JNK-2 (P45984 whole entry, species assumed): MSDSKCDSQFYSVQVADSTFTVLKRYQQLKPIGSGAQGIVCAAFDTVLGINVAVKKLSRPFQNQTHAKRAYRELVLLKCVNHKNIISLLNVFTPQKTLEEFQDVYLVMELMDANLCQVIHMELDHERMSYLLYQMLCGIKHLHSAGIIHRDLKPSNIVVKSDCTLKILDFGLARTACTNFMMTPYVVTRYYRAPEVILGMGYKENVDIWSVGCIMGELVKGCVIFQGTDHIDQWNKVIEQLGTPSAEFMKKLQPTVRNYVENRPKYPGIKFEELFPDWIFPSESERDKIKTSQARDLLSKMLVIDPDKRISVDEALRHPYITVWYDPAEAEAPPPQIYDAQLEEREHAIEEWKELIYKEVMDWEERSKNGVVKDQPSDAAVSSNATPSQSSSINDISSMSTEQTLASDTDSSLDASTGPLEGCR
From the text: as §1

For data set [7], the system named is p38. As to the kind of experiment: p38 phosphorylation caused by glutamate in cells. The class given is cell-based. Particulars: HT22 cells and primary cortical neurons.
From the text: as §1

The subject of data set [8] is JNK. The data set can be described thus: JNK phosphorylation caused by glutamate in cells. The class given is cell-based. Particulars: HT22 cells and primary cortical neurons.
From the text: as §1

Data set [9] has as its system HT22 cells and primary cortical neurons. The data set can be described thus: Cell death caused by glutamate in HT22 cells and primary cortical neurons. Type of data set: cell-based.
In data set [10] the test system is rat primary cortical neurons. The data set can be described thus: Neuroprotective activity, rat primary cortical neurons cultured in serum-containing or serum-free medium. Type of data set: cell-based. The procedure: Primary cortical neurons are prepared from 18-day-old embryos of Sprague-Dawley rats as described (Liu and Schubert J. Neurochem. 69, 2285-2293 (1997) and J. Neurochem. 71, 2322-2329 (1998)). Briefly, the cerebral cortex is dissected out under an anatomical microscope and is freed of meninges and blood vessels. The cortex is cut into small pieces and is then dissociated by trypsin digestion and passed through a pipette tip. Dissociated neurons are suspended in various media and plated on polylysine-coated 35 mm tissue culture dishes (1×10^6 cells/dish). Several different culture conditions were used. Invention compounds were added to cell culture dishes. Cell survival was measure 2-7 days after compound administration.
The following serum-containing medium was used: minimal essential medium (Sigma) containing 30 mM glucose, 2 mM glutamine, 1 mM pyruvate, penicillin (100 U/ml), streptomycin (100 μg/ml), and 10% fetal calf serum. At a plating density of 1×10^6 cells/dish, most neurons die after one week of culture in this medium. If plated at a density of 2×10^6 cells/dish, then most neurons survive. Glia proliferate in this medium regardless of the initial cell density. Therefore the cell density-dependent neuronal survival in this system is most likely dependent on the neurotrophic factors secreted by the neurons, not by the glia. The results are the same when glial proliferation is inhibited by cytosine arabinoside.
A serum-free medium containing DMEM/F-12 plus N2 supplements (Invitrogen). When plated at a density of 1×10^6 cells/dish, almost all neurons die within three days. The cell death mechanisms in this culture medium are most likely to be oxidative stress and trophic factor deficiency.
A number of compounds according to the present invention were synthesized (using standard synthetic techniques) to explore the structure-activity relationships. The structures of exemplary invention compounds tested are provided herein. The structure-activity relationships of various compounds according to the present invention with rat primary cortical neurons cultured in serum-containing or serum-free medium are set forth in Table 1.

Sequence of JNK-1 (P45983 whole entry, species assumed): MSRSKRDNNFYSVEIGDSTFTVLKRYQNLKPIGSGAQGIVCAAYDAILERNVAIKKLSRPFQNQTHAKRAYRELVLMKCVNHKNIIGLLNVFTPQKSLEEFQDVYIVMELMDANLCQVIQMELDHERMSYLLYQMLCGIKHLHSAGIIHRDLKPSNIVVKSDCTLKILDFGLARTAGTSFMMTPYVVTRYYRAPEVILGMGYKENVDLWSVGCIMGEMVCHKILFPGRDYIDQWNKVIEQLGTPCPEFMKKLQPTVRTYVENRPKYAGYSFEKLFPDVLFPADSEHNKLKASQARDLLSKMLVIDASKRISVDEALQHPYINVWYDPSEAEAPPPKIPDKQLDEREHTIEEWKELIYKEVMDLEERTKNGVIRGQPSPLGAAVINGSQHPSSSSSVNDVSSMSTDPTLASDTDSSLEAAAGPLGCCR

For `COc1cc(/C=C/c2cc(/C=C/c3ccc(O)c(OC)c3)n(-c3ccccc3)n2)ccc1O` [Compound 11-001], the “Plasma 11-001 concentration” value in [1] (0 hr after gavage) worked out at 0 µg/mL; in data set [1] (1 hr after gavage), 1.84 µg/mL; in data set [1] (2 hr after gavage) it was 2.30 µg/mL; in data set [1] (4 hr after gavage), 1.25 µg/mL; in data set [1] (6 hr after gavage), 0.67 µg/mL. In data set [1] (400 mg/kg by gavage), the “Time of maximum plasma concentration” value is “around 2 hr”. Besides, the “Brain 11-001 content” value is 0 μg/g brain in data set [2] (0 hr after gavage); 2.62 μg/g brain in data set [2] (1 hr after gavage); 1.28 μg/g brain in data set [2] (2 hr after gavage); 0.89 μg/g brain in [2] (4 hr after gavage); 0.95 μg/g brain in [2] (6 hr after gavage). For the same compound, the “Time of maximum brain concentration” value in [2] (400 mg/kg by gavage) stood at 1 h. Besides, the “Oral absorption and passage of the blood-brain barrier” value in data set [2] (400 mg/kg by gavage, mice) was “can be orally absorbed and traverse the blood-brain barrier”. Also, in [3], the “HT22 cells that lived after glutamate” value is on record as “over 90%”. Further, the “Inhibition of kinase in panel of 14 protein kinases” value is “partially inhibited” in data set [4]; “None of the other enzymes that were assayed, including JNK-1 or JNK-2, were affected” in [5]; “None of the other enzymes that were assayed, including JNK-1 or JNK-2, were affected” in data set [6]. Further, the “Block of p38 phosphorylation caused by glutamate” value in [7] is reported as “about 30%”. Besides, in [8], the “Block of JNK phosphorylation caused by glutamate” value is “about 30%”. Further, the “Effect on cell death” value in data set [9] is “inhibited cell death”.

Turning to `C(=C\c1cc(/C=C/c2ccccc2)n(-c2ccccc2)n1)/c1ccccc1` [Compound 22-020], in data set [10], the “Neuroprotective activity at 1 μM” value worked out at 0.

`COc1ccc(/C=C/c2cc(/C=C/c3ccc(OC)cc3)n(-c3ccccc3)n2)cc1` [Compound 22-022]: the “Neuroprotective activity at 1 μM” value in data set [10] is reported as 0.

On to `COc1cccc(/C=C/c2cc(/C=C/c3cccc(OC)c3)n(-c3ccccc3)n2)c1` [Compound 22-024], for which, in [10], the “Neuroprotective activity at 1 μM” value was 0.

Consider `COc1ccc(/C=C/c2cc(/C=C/c3ccc(OC)c(OC)c3)n(-c3ccccc3)n2)cc1OC` [Compound 22-026], for which the “Neuroprotective activity at 1 μM” value in [10] was determined as 0.
